Patent publication US20170196834A1, “PREPARATION AND APPLICATION OF FLAVONOL AS BRAIN-TARGETING SYNERGIST” (GUANGDONG PHARMACEUTICAL UNIVERSITY, priority 2014, published 2017)

Columns and labels:
[1] = Rb1 in blood and brain tissues 0.5 h after intragastric administration, UPLC-MS (Example 1); format: in vivo; settings: SD rats, equivalent to ginsenoside Rb1 100 mg/kg, 0.5 h after administration
Protocol: Treatment Group: The LXN1-1 and LXN1-2 were made into suspension, administered to SD rats by intragastric administration. Five rats were given 20 ml/kg according to the dose of 125/150 mg/kg (equivalent to ginsenoside Rb1 100 mg/kg);
Control group: ginsenoside […] extract was made into suspension, administered to SD rats by intragastric administration. Five rats were given ginsenoside Rb1 at the volume of 20 ml/kg according to the dose of 100 mg/kg;
The rats were drew blood 0.5 h after administration and then sacrificed under anaesthesia. Brain tissues were taken to prepare brain homogenates. The content of TCM active ingredient in the blood and brain tissues was detected by UPLC-MS.

MCAO forebrain ischemia [2] = test: MCAO forebrain ischemia rats, improvement rate of cerebral infarction area (Example 1); format: in vivo; settings: gavage, 7 days after administration
Protocol: (§1) In addition, […] of MCAO forebrain ischemia were prepared, and they were administered solvent saline, 100 mg/kg LXN1 or ginsenoside Rb1 by gavage at 20 ml/kg, 10 rats per group; Animals were sacrificed 7 days after administration, to observe the improvement rate of cerebral infarction area.

MCAO forebrain ischemia [3] = test: MCAO forebrain ischemia rats, improvement rate of cerebral infarction area (Example 2); format: in vivo; settings: gavage, 7 days after administration
Protocol: as §1, with “administered with” for “administered”, “LXN11 and” for “LXN1 or”, “Rg1” for “Rb1”

[4] = system: 6-hydroxydopamine PD models; test: 6-hydroxydopamine PD model rats, behavioural indexes; format: in vivo; settings: 6-hydroxydopamine PD rats, 100 mg/kg levodopa by gavage, 15 days
Protocol: Animals were administered for 15 days, to observe the changes of five indexes, including slow-moving test, grasping experiment, tail stiffness, change of tonic symptoms and tremor test.

Parkinson's disease = test: Clinical treatment of Parkinson's disease (LXN9, LXN10, levodopa); format: in vivo, human
From the text: (1) Clinical Data and Methods • Same as above.
Profile of patients: All selected patients were from department of neurology, which diagnosed with Parkinson's disease according to the Parkinson's disease diagnostic criteria in clinical examination during 2010-2014. a total of 120 cases, including 66 males, 54 females; aged 50-78 years, and 62.8 years on average, with the shortest duration of 1 year, and longest duration of 13 years, 3.6 years on average.
Levodopa tablet group: (specification of 250 mg/tablet) 1 tablet/time, 3 times/d.
LXN 10 capsule group: 250 mg/capsule, 1 capsule per time, 3 times a day.
Fifteen days as a course in all groups, a total of 9 months for medication; and during the period, other drugs regulating cerebral vasodilation, brain cell metabolism and neurological functions were discontinued. […]

[5] = Levodopa in blood and brain tissues 0.5 h after intragastric administration, UPLC-MS (Example 7); format: in vivo; settings: rat, oral, SD rats, intragastric 100 mg/kg levodopa
Protocol: Five SD rats were administered the suspension at the dose of 100 mg/kg levodopa and the volume of 20 ml/kg by intragastric administration;
Control group: The levodopa was made into suspension. Five SD rats were administered the suspension at the dose of 100 mg/kg and the volume of 20 ml/kg by intragastric administration;
The rats were drew blood 0.5 h after administration, and then sacrificed under anaesthesia. Brain tissues were taken to prepare brain homogenates. The content of active ingredient in the blood and brain tissues was detected by UPLC-MS.

MCAO forebrain ischemia [6] = test: MCAO forebrain ischemia rats, improvement rate of cerebral infarction area (Example 4); format: in vivo; settings: gavage, 7 days after administration
Protocol: In addition, 30 rats of MCAO forebrain ischemia were prepared, and they were administered solvent saline, 100 mg/kg LXN3, and resveratrol by gavage at 20 ml/kg, 10 rats per group; […]

[7] = Resveratrol in blood and brain tissues 0.5 h after intragastric administration, UPLC-MS (Example 4); format: in vivo; settings: rat, oral, SD rats, 100 mg/kg resveratrol, 0.5 h after administration
Protocol: Treatment Group: LXN3 was made into suspension. 5 SD rats were administered the suspension at the dose of 100 mg/kg resveratrol and the volume of 20 ml/kg by intragastric administration;
Control group: Resveratrol was made into suspension. 5 SD rats were administered the suspension at the dose of 100 mg/kg resveratrol and the volume of 20 ml/kg by intragastric administration;
The rats were derw blood 0.5 h after administration and then sacrificed under anaesthesia. Brain tissues were taken to prepare brain homogenates. The content of resveratrol in the blood and brain tissues were detected by UPLC-MS.

SMILES: CC(C)=CCC[C@](C)(O[C@@H]1O[C@H](CO[C@@H]2O[C@H](CO)[C@@H](O)[C@H](O)[C@H]2O)[C@@H](O)[C@H](O)[C@H]1O)[C@H]1CC[C@]2(C)[C@@H]1[C@H](O)C[C@@H]1[C@@]3(C)CC[C@H](O[C@@H]4O[C@H](CO)[C@@H](O)[C@H](O)[C@H]4O[C@@H]4O[C@H](CO)[C@@H](O)[C@H](O)[C@H]4O)C(C)(C)[C@@H]3CC[C@]12C [Rb1, ginsenoside Rb1]
- Rb1 content in brain tissues [1]: 4.12 ± 1.13 ng/g
- Rb1 plasma concentration [1]: 3.35 ± 0.68 µg/mL
- Improvement rate of cerebral infarction area (MCAO forebrain ischemia [2]): 22.1 ± 9.1%

SMILES: CC(C)=CCC[C@](C)(O[C@@H]1O[C@H](CO)[C@@H](O)[C@H](O)[C@H]1O)[C@H]1CC[C@]2(C)[C@@H]1[C@H](O)C[C@@H]1[C@@]3(C)CC[C@H](O)C(C)(C)[C@@H]3[C@@H](O[C@@H]3O[C@H](CO)[C@@H](O)[C@H](O)[C@H]3O)C[C@]12C [Rg1, ginsenoside Rg1]
- Improvement rate of cerebral infarction area (MCAO forebrain ischemia [3]): 26.1 ± 7.1%

SMILES: N[C@@H](Cc1ccc(O)c(O)c1)C(=O)O [Levodopa, levodopa]
- Duration of slow-moving test [4]: 15.5 min
- EMG group discharge frequency [4]: 3.1 times/sec
- Grip Test Duration [4]: 40.1 min
- Muscle tremor frequency [4]: 10.1 times, minutes
- tail stiffness time [4]: 10.2 min
- Daily Living Activity (UPDRS-II) Score, 1 month after treatment (Parkinson's disease; PD patients, n=40): 14.12 ± 5.31
- Daily Living Activity (UPDRS-II) Score, 3 months after treatment (Parkinson's disease; PD patients, n=40): 12.49 ± 5.10
- Daily Living Activity (UPDRS-II) Score, 6 months after treatment (Parkinson's disease; PD patients, n=40): 11.12 ± 3.31
- Daily Living Activity (UPDRS-II) Score, 12 months after treatment (Parkinson's disease; PD patients, n=40): 10.32 ± 3.31
- Daily Living Activity (UPDRS-II) Score, Before treatment (Parkinson's disease; PD patients, n=40): 15.61 ± 5.71
- daily life satisfaction (LSIB) scores, 1 month after treatment (Parkinson's disease; PD patients, n=40): 13.11 ± 3.92
- daily life satisfaction (LSIB) scores, 3 months after treatment (Parkinson's disease; PD patients, n=40): 14.91 ± 3.16
- daily life satisfaction (LSIB) scores, 6 months after treatment (Parkinson's disease; PD patients, n=40): 16.85 ± 3.15
- daily life satisfaction (LSIB) scores, 12 months after treatment (Parkinson's disease; PD patients, n=40): 17.24 ± 3.16
- daily life satisfaction (LSIB) scores, Before treatment (Parkinson's disease; PD patients, n=40): 12.59 ± 2.02
- motor complications (UPDRS-IV) scores, 1 month after treatment (Parkinson's disease; PD patients, n=40): 2.93 ± 0.86
- motor complications (UPDRS-IV) scores, 3 months after treatment (Parkinson's disease; PD patients, n=40): 2.46 ± 0.61
- motor complications (UPDRS-IV) scores, 6 months after treatment (Parkinson's disease; PD patients, n=40): 2.15 ± 0.56
- motor complications (UPDRS-IV) scores, 12 months after treatment (Parkinson's disease; PD patients, n=40): 1.79 ± 0.56
- motor complications (UPDRS-IV) scores, Before treatment (Parkinson's disease; PD patients, n=40): 3.59 ± 1.02
- motor function examination (UPDRS-III) scores, 1 month after treatment (Parkinson's disease; PD patients, n=40): 34.16 ± 7.91
- motor function examination (UPDRS-III) scores, 3 months after treatment (Parkinson's disease; PD patients, n=40): 28.91 ± 6.61
- motor function examination (UPDRS-III) scores, 6 months after treatment (Parkinson's disease; PD patients, n=40): 24.85 ± 6.56
- motor function examination (UPDRS-III) scores, 12 months after treatment (Parkinson's disease; PD patients, n=40): 21.15 ± 6.56
- motor function examination (UPDRS-III) scores, Before treatment (Parkinson's disease; PD patients, n=40): 37.99 ± 10.23
- psychiatric, behavioral, and emotional scores (UPDRS-1), 1 month after treatment (Parkinson's disease; PD patients, n=40): 3.15 ± 0.81
- psychiatric, behavioral, and emotional scores (UPDRS-1), 3 months after treatment (Parkinson's disease; PD patients, n=40): 2.29 ± 0.73
- psychiatric, behavioral, and emotional scores (UPDRS-1), 6 months after treatment (Parkinson's disease; PD patients, n=40): 1.85 ± 0.53
- psychiatric, behavioral, and emotional scores (UPDRS-1), 12 months after treatment (Parkinson's disease; PD patients, n=40): 1.79 ± 0.59
- psychiatric, behavioral, and emotional scores (UPDRS-1), Before treatment (Parkinson's disease; PD patients, n=40): 3.59 ± 1.02
- Curative effect for PD: Overall response rate (ORR) (Parkinson's disease; clinically cured, markedly effective and effective cases): 80%
- Curative effect for PD: Clinically cured % (Parkinson's disease; of 40 cases): 0%
- Curative effect for PD: Clinically cured n (Parkinson's disease; of 40 cases): 0
- Curative effect for PD: Effective % (Parkinson's disease; of 40 cases): 32.2%
- Curative effect for PD: Effective n (Parkinson's disease; of 40 cases): 13
- Curative effect for PD: Ineffective % (Parkinson's disease; of 40 cases): 20.0%
- Curative effect for PD: Ineffective n (Parkinson's disease; of 40 cases): 8
- Curative effect for PD: Markedly effective % (Parkinson's disease; of 40 cases): 47.8%
- Curative effect for PD: Markedly effective n (Parkinson's disease; of 40 cases): 19
- concentration at 0.5 h ([5]; blood, read-out: levodopa Content in the blood): 114000 ng/mL
- concentration at 0.5 h ([5]; brain, read-out: levodopa Content in the brain tissues): 284 ng/mL

SMILES: Oc1ccc(C=Cc2cc(O)cc(O)c2)cc1 [Resveratrol]
- Improvement rate of cerebral infarction area (MCAO forebrain ischemia [6]): 20.1 ± 8.6%
- concentration at 0.5 h ([7]; brain, read-out: Resveratrol content in brain tissues): 3.12 ± 1.29 ng/g
- concentration at 0.5 h ([7]; plasma, read-out: Plasma concentration of resveratrol): 5580 ± 1280 ng/mL
